Measured values taken from the supplement of paper PMC10933113.
Where a name gives a salt, the structure may show the parent alone. ± gives the uncertainty stated by the source.

Legend:
THP-1 = assay: efficacy of IL-8 induction relative to DMSO (% activity); higher = stronger induction; details: exposure time: 18 h
[1] = system: KeratinoSens (HaCaT ARE-luciferase) cells; assay: efficacy of ARE luciferase induction relative to DMSO (% activity over DMSO); higher = stronger induction; details: exposure time: 24 h
[2] = system: cysteine peptide Ac-RFAACAA-COOH; assay: efficacy of cysteine peptide change (negative = depletion) (% activity); higher = less depletion; details: incubation time: 24 h
[3] = system: lysine peptide Ac-RFAAKAA-COOH; assay: efficacy of lysine peptide change (negative = depletion) (% activity); higher = less depletion; details: incubation time: 24 h

Compound	efficacy of IL-8 induction (THP-1)	efficacy of ARE luciferase induction [1]	efficacy of cysteine peptide change [2]	efficacy of lysine peptide change [3]
CCCCCCCCCCCCN(CCO)CCO [Lauryldiethanolamine]	30.1 ± 14	-12.7 ± 56	-45.7 ± 16	109 ± 17
O=C(O)c1cccnc1Nc1cccc(C(F)(F)F)c1 [Niflumic acid]	0	59.7 ± 37	40.2 ± 6.4	93.9 ± 56
Cc1ccc(N=C=O)cc1N=C=O [Toluene-2,4-diisocyanate]	33 ± 3.5	82.9 ± 38	-19.2 ± 5	-3.03 ± 21
COC(=O)CCCCCCCC(=O)OC [Dimethyl nonanedioate]	0	10.6 ± 13	59.7 ± 11	21.8 ± 24
CC(C)(C)c1ccc(C(=O)CCCCl)cc1 [4'-Tert-butyl-4-chlorobutyrophenone]	0	38.6 ± 9.4	94.9	17.7 ± 16
COc1ccc(C(=O)c2ccc(C)cc2)c(O)c1 [Mexenone]	10.8 ± 9.8	28 ± 31	2.33 ± 4	9.47 ± 3
CCCCCCCCCCCCOCCO [2-(Dodecyloxy)ethanol]	-3.05 ± 5.3	8.82 ± 15	73.8	3.27 ± 16
c1ccc(-c2cccc(-c3ccccc3)c2)cc1 [1,1':3',1''-Terphenyl]	9.01 ± 8.6	21.9 ± 16	-4.8 ± 8.3	7.59 ± 13
CC(C)c1ccc2cc(C(C)C)ccc2c1 [2,6-Diisopropylnaphthalene]	2.46 ± 4.3	28.7 ± 11	7.33 ± 6.5	1.65 ± 26
O=[N+]([O-])c1cc([N+](=O)[O-])c2ccccc2c1 [1,3-Dinitronaphthalene]	0	29.3 ± 10	-32.4 ± 17	-15.1 ± 14
C#CCN(C)CCCOc1ccc(Cl)cc1Cl [Clorgyline hydrochloride]	0	43.6 ± 25	42.2 ± 21	20.7 ± 22
O=C(Oc1ccccc1)c1ccccc1O [Phenyl salicylate]	0	8.07 ± 11	9.93 ± 10	10.7 ± 13
Nc1ccc(Cl)cc1Cl [2,4-Dichloroaniline]	8.9 ± 7.7	3.01 ± 5.2	0	6.42 ± 18
C=CCOC(=O)/C=C\C(=O)OCC=C [Diprop-2-en-1-yl (2Z)-but-2-enedioate]	3.9 ± 6.8	23.7 ± 6.3	-44.3 ± 3.7	-4.75 ± 8.2
O=C(O)c1cn(C2CC2)c2cc(N3CCNCC3)c(F)cc2c1=O [Ciprofloxacin]	0	14.6 ± 25	8.17 ± 8.2	-2.18 ± 19
NC(=O)N/N=C/c1ccc([N+](=O)[O-])o1 [Nitrofurazone]	0	37 ± 47	-39.2 ± 4.3	-8.37 ± 1.2
CCCCCCCCN [n-Octylamine]	0	47.1 ± 74	0	-6.29 ± 6.4
CCC(C)(c1ccc(O)cc1)c1ccc(O)cc1 [Bisphenol B]	9.18 ± 8.1	38.7 ± 21	2.81 ± 4.9	31.9 ± 11
CCCCOCCOCCOCCO [2-[2-(2-Butoxyethoxy)ethoxy]ethanol]	3.34 ± 5.8	75.4 ± 120	37.2 ± 7.3	207 ± 33
